The nature of the data set: Release in the rabbit eye, measured by drug contained in the aqueous humor. The class given is in vivo. To be noted: released from the gel of the ophthalmically acceptable vehicle. The method, then: The viscous gels that result upon administration of the aqueous suspensions of this invention to the eye have residence times in the eye ranging from about 2 to about 12 hours, e.g., from about 3 to about 6 hours. The active ingredients contained in these ophthalmically acceptable vehicles are released from the gels at rates that depend on such factors as the active ingredient itself and its physical form, the extent of drug loading and the pH of the system, as well as on any drug delivery adjuvants, such as ion exchange resins compatible with the ocular surface, which can also be present.

As for `CC(=O)[C@@]1(O)CC[C@H]2[C@@H]3C[C@H](C)C4=CC(=O)C=C[C@]4(C)[C@@]3(F)[C@@H](O)C[C@@]21C` [fluorometholone], the “release rates in the rabbit eye, as measured by fluorometholone contained in the aqueous humor” value was “in excess of four hours”.
